Data reported in PubChem BioAssay (NCI).
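Interpolation was linear, between the two tested concentrations surrounding the appropriate level; five concentrations were tested over 48 hours in 96-well plates. GI50 is the concentration that inhibits growth by half. TGI: total growth inhibition.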

Assays:
Test in all cases: NCI tumour cell line growth inhibition, 48 h
LOX IMVI melanoma = system: LOX IMVI melanoma
IGROV1 ovarian = system: IGROV1 ovarian
OVCAR-5 ovarian = system: OVCAR-5 ovarian
SN12C renal = system: SN12C renal
A498 renal = system: A498 renal
RPMI-8226 leukemia = system: RPMI-8226 leukemia
SF-295 CNS = system: SF-295 CNS
HT29 colon = system: HT29 colon
TK-10 renal = system: TK-10 renal
K-562 leukemia = system: K-562 leukemia

Structure (SMILES)	TGI (LOX IMVI melanoma) [µM]	TGI (IGROV1 ovarian) [µM]	TGI (OVCAR-5 ovarian) [µM]	TGI (SN12C renal) [µM]	TGI (A498 renal) [µM]	TGI (RPMI-8226 leukemia) [µM]	TGI (SF-295 CNS) [µM]	TGI (HT29 colon) [µM]	TGI (TK-10 renal) [µM]	TGI (K-562 leukemia) [µM]	GI50 (LOX IMVI melanoma) [nM]	GI50 (IGROV1 ovarian) [nM]	GI50 (OVCAR-5 ovarian) [µM]	GI50 (SN12C renal) [nM]	GI50 (A498 renal) [nM]	GI50 (RPMI-8226 leukemia) [µM]	GI50 (SF-295 CNS) [nM]	GI50 (HT29 colon) [µM]	GI50 (TK-10 renal) [µM]	GI50 (K-562 leukemia) [nM]
O=C(O)C12C3CCCC1C2CC3 (stereo not given)	> 100	> 100	> 100	> 100	> 100	> 100	> 100	> 100	> 100	> 100										
CN(c1ccccc1)C(c1ccccc1)C(O)c1ccccc1 (stereo not given)	31.7	45.4	37.3	31.3	37.5	49.3	32	32.9	57.1	41.1										
C[C@]12CCC(=O)C(O)=C1CC[C@@H]1[C@@H]2CC[C@]2(C)C(=O)CC[C@@H]12	> 100	> 100	> 100	> 100	> 100	> 100	> 100	> 100	> 100	> 100										
c1ccc(N=C2c3ccccc3C3=NCCCN32)cc1	> 100	> 100	> 100	> 100	> 100	> 100	> 100	> 100	> 100	> 100										
CC(=O)/C=C/c1ccc(C2CC(C)=Nc3c(ccc4c3C(=O)c3ccccc3C4=O)N2)cc1 (stereo not given)	> 100	> 100	> 100	> 100	> 100	> 100	> 100	> 100	> 100	> 100										
CC1(C)OCC(CO)(Nc2nc(N3CC3)nc(N3CC3)n2)CO1	32.4	58.5	50.3	58.6	24.2	> 100	20.3	53.7	67.5	> 100										
COc1ccc(/C=C\c2cc(OC)c(OC)c(OC)c2)cc1OCC(=O)Nc1nc2ccc(C(F)(F)F)cc2s1	> 100	> 100	> 100	> 100	18.6	> 100	> 100	> 100	> 100	> 100	4010	4480	5.98	4430	2810	5.48	3360	14.9	7.03	3300
CCOC(CN=c1nc(N(C)C)ss1)OCC	31.2	> 100	44.1	36.8	> 100	8.54	43.8	17.5	73.5	11.8										
Cc1ccc2c(N)c(C(=O)N[C@H]3CCc4cc(N5CC6CCC(C5)N6)ccc4C3)sc2n1	0.405	2.72	3	1.8	2.65	3.42	2.59	3.22	3.26	18	76.1	348	0.47	263	775	0.764	509	0.257	0.434	203
